Experimental data reported in ChEMBL document CHEMBL5365468, “Discovery of a novel series of medium-sized cyclic enteropeptidase inhibitors” (Bioorg Med Chem, 2023).

Columns and labels:
Enteropeptidase [1] = target: T1, Enteropeptidase (Homo sapiens, UniProt P98073); assay: Inhibition of human recombinant enteropeptidase using 5FAM-Abu-Gly-Asp-Asp-Asp-Lys-Ile-Val-Gly-Gly-Lys(CPQ2)-Lys-Lys-NH2 as substrate incubated for 6 mins by fluorescence plate reader analysis
Enteropeptidase [2] = target: T1, Enteropeptidase; assay: Inhibition of human recombinant enteropeptidase using 5FAM-Abu-Gly-Asp-Asp-Asp-Lys-Ile-Val-Gly-Gly-Lys(CPQ2)-Lys-Lys-NH2 as substrate assessed as dissociation half life preincubated with compound for 2 hrs followed by substrate addition and measured every 2 mins by fluorescence based analysis
[3] = In vivo inhibition of enteropeptidase in D12079B diet-induced obese C57BL/6J mouse model assessed as fold increase in fecal protein output at 10 mg/kg, po measured overnight relative to N-({4-[(4-carbamimidamidobenzoyl)oxy]phenyl}acetyl)-L-aspartic acid hydrochloride; type: functional
[4] = Stability of the compound at pH 1.2 assessed as drug decomposition at 10 ug/ml incubated for 24 hrs by HPLC analysis; type: physicochemical; conditions: buffer, at 10 µg/mL, read-out: Drug degradation
Enteropeptidase [5] = target: T1, Enteropeptidase; assay: Inhibition of human recombinant enteropeptidase using 5FAM-Abu-Gly-Asp-Asp-Asp-Lys-Ile-Val-Gly-Gly-Lys(CPQ2)-Lys-Lys-NH2 as substrate incubated for 120 mins by fluorescence plate reader analysis
[6] = Stability of the compound at pH 6.8 assessed as drug decomposition at 10 ug/ml incubated for 24 hrs by HPLC analysis; type: physicochemical; conditions: buffer, at 10 µg/mL, read-out: Drug degradation
[7] = Drug absorption in rat intestine assessed as fraction of drug absorbed into portal vein at 10 mg/kg, po by LC-MS/MS analysis; type: ADME, organism-based; conditions: in vivo
[8] = Oral bioavailability in rat assessed as ratio of dose normalized oral AUC to intravenous AUC at 10 mg/kg by LC-MS/MS analysis; type: ADME, organism-based; conditions: in vivo
[9] = Drug absorption in monkey intestine assessed as fraction of drug absorbed into portal vein at 1 mg/kg, po by LC-MS/MS analysis; type: ADME, organism-based, Macaca mulatta; conditions: rhesus monkey, in vivo
[10] = Oral bioavailability in dog assessed as ratio of dose normalized oral AUC to intravenous AUC at 1 mg/kg by LC-MS/MS analysis; type: ADME, organism-based, Canis lupus familiaris; conditions: in vivo
[11] = Drug absorption in mouse intestine assessed as fraction of drug absorbed into portal vein at 10 mg/kg, po by LC-MS/MS analysis; type: ADME, organism-based; conditions: in vivo
[12] = Drug absorption in dog intestine assessed as fraction of drug absorbed into portal vein at 1 mg/kg, po by LC-MS/MS analysis; type: ADME, organism-based, Canis lupus familiaris; conditions: in vivo
[13] = Oral bioavailability in monkey assessed as ratio of dose normalized oral AUC to intravenous AUC at 1 mg/kg by LC-MS/MS analysis; type: ADME, organism-based, Macaca mulatta; conditions: rhesus monkey, in vivo
[14] = Inhibition of rat recombinant enteropeptidase catalytic domain (818 to 1057 residues) using 5FAM-Abu-Gly-Asp-Asp-Asp-Lys-Ile-Val-Gly-Gly-Lys(CPQ2)-Lys-Lys-NH2 as substrate incubated for 120 mins by fluorescence plate reader analysis
[15] = Drug metabolism in Sprague-Dawley rat assessed as open-ring type hydrolyzed metabolite formation in plasma at 100 mg/kg, po by LC-MS/MS analysis; type: ADME, organism-based; conditions: in vivo
[16] = Oral bioavailability in mouse assessed as ratio of dose normalized oral AUC to intravenous AUC at 10 mg/kg by LC-MS/MS analysis; type: ADME, organism-based; conditions: in vivo

T1 sequence (P98073 2-784 limits assumed): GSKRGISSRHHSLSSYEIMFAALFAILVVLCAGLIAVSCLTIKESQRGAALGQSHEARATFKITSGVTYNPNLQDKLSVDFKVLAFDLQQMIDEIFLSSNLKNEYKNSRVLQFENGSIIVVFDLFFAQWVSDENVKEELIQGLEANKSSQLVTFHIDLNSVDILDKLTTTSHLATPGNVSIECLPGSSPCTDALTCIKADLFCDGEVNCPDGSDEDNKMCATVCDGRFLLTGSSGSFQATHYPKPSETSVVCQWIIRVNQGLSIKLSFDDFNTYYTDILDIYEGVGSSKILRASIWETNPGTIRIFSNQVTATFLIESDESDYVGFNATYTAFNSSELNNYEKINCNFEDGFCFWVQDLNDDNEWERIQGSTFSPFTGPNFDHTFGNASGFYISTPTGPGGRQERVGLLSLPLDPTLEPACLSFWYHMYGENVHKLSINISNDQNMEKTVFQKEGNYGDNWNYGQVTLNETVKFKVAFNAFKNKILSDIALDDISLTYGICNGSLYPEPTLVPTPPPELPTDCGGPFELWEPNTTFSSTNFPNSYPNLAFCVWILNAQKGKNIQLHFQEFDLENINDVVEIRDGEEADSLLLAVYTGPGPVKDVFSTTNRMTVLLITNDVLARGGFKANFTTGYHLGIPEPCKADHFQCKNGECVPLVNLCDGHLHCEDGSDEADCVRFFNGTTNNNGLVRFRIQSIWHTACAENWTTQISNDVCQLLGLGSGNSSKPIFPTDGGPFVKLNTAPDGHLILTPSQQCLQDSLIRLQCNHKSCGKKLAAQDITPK
T1 sequence (P98073 785-1019 limits assumed): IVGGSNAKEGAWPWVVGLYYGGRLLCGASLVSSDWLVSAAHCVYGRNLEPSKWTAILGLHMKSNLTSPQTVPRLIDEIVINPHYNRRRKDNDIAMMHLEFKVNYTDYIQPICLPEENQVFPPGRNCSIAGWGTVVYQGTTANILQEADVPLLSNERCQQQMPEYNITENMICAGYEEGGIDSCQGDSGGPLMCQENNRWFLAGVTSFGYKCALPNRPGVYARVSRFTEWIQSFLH

SMILES	IC50 (Enteropeptidase [1]) [µM]	T1/2 (Enteropeptidase [2]) [h]	fold change (FC) [3]	IC50 (Enteropeptidase [5]) [µM]	other results
N=C(N)Nc1ccc2c(c1)CCCCc1c(cccc1C(=O)N[C@@H](CC(=O)O)C(=O)O)OC2=O	0.093	> 2	1.13	0.0032	degraded at 24 h, 10 ug/ml [4]: 1.2%; degraded at 24 h, 10 ug/ml [6]: 3.4%
N=C(N)Nc1ccc2c(c1)CCCCCCc1c(cccc1C(=O)N[C@@H](CC(=O)O)C(=O)O)OC2=O	2.5			0.081	
N=C(N)Nc1ccc2c(c1)CCCCCc1c(cccc1C(=O)N[C@@H](CC(=O)O)C(=O)O)OC2=O	0.096	> 2	1.15	0.0029	degraded at 24 h, 10 ug/ml [4]: 0.4%; degraded at 24 h, 10 ug/ml [6]: 0.6%
Cc1c(OC(=O)c2ccc(NC(=N)N)cc2)cccc1C(=O)N[C@@H](CC(=O)O)C(=O)O	0.069			0.0044	
N=C(N)Nc1ccc2c(c1)CCCOc1c(cccc1C(=O)N[C@@H](CC(=O)O)C(=O)O)OC2=O	0.0094	> 2	1.72	0.00041	FaFg [7]: 1.2%; bioavailability [8]: 1%; FaFg [9]: 0.3%; bioavailability [10]: 2.8%; FaFg [11]: 1.9%; FaFg [12]: 3.4%; bioavailability [13]: 0.3%; IC50 [14]: 0.00062 µM; Drug metabolism [15]: Metabolite_Detected; bioavailability [16]: 1.1%
N=C(N)Nc1ccc2c(c1)OCCCc1c(cccc1C(=O)N[C@@H](CC(=O)O)C(=O)O)OC2=O	0.0087	0.27		0.00069	
N=C(N)Nc1ccc2c(c1)CCCCOc1c(cccc1C(=O)N[C@@H](CC(=O)O)C(=O)O)OC2=O	0.026	> 2		0.0017	
N=C(N)Nc1ccc2c(c1)CCCc1c(cccc1C(=O)N[C@@H](CC(=O)O)C(=O)O)OC2=O	0.43			0.022	
Cc1ccc(C(=O)N[C@@H](CC(=O)O)C(=O)O)cc1OC(=O)c1ccc(NC(=N)N)cc1	> 3.3			0.71	
